Measured values published in patent publication US20230226198A1, “Artemisinin Derivatives” (DA ZEN THERANOSTICS, INC., priority 2019, published 2023).
Where two headings read alike, the source gives them in different places.

Assays:
Type in all cases: cell-based
22Rv1 cells = experiment: MTT cell viability / IC50 assay, 22Rv1; conditions: Homo sapiens, 22Rv1, 48 h
Experimental: (§1) Cell culture: In the following examples, unless otherwise specified, all cell lines are purchased from American Type Culture Collection and cultured in American Type Culture Collection (ATCC)-recommended media, with fetal bovine serum (FBS) to a final concentration of 10% and 1× penicillin/streptomycin at 37° C. with 5% CO2 in a cell culture incubator, unless otherwise specified. Unless otherwise specified, culture is 2D. Where culture is 3D, low attachment plates are used, with the same media. C4-2B (ATCC® CRL-3315™, human prostate cancer cells of epithelial morphology) parental cell line and drug-resistant cells derived therefrom) are cultured in RPMI-1640 with 10% FBS. MDVR cells (an Enzalutamide-resistant variety of C4-2B prostate cancer cells formed as described below) are cultured as indicated for the parental C4-2B cells. Caki-1 cells (human clear cell renal cell carcinoma cells) are cultured in ATCC-formulated McCoy's 5a Medium Modified (ATCC Catalog No. 30-2007) with 10% FBS. […]
(§2) Each of the cell lines is treated either with a THAD (e.g. DZ-DHA-ether, MI-148-bis-DHA), or for comparison, with the DHA mono-ester “DZ-DHA”; alternatively/additionally, DZ1 and/or unconjugated DHA may serve as comparants. […] The absorbance density of the supernatant is read on a 96-well microplate reader at wavelength 595 nm. […]

[1] = tested on: MDVR cells (Enzalutamide-resistant C4-2B prostate cancer cells); experiment: MTT cell viability / IC50 assay, MDVR; conditions: Homo sapiens
Experimental: Cell culture: In the following examples, unless otherwise specified, all cell lines are purchased from American Type Culture Collection and cultured in American Type Culture Collection (ATCC)-recommended media, with fetal bovine serum (FBS) to a final concentration of 10% and 1× penicillin/streptomycin at 37° C. with 5% CO2 in a cell culture incubator, unless otherwise specified. Unless otherwise specified, culture is 2D. Where culture is 3D, low attachment plates are used, with the same media. C4-2B (ATCC® CRL-3315™, human prostate cancer cells of epithelial morphology) parental cell line and drug-resistant cells derived therefrom) are cultured in RPMI-1640 with 10% FBS. MDVR cells (an Enzalutamide-resistant variety of C4-2B prostate cancer cells formed as described below) are cultured as indicated for the parental C4-2B cells. Caki-1 cells (human clear cell renal cell carcinoma cells) are cultured in ATCC-formulated McCoy's 5a Medium Modified (ATCC Catalog No. 30-2007) with 10% FBS. PC3 cells (ATCC® CRL-1435™, a human prostate cancer cell line of epithelial morphology initiated from a bone metastasis of a grade IV prostatic adenocarcinoma) are cultured in F-12K with 10% FBS. 22RV1 Prostate Cancer (PC) cells (ATCC® CRL-2505™, a human prostate carcinoma cell line of epithelial morphology) are cultured in RPMI-1640 with 10% FBS. DU145 cells (ATCC® HTB-81™, a human cell line derived from a prostate-originating brain metastase, not detectably hormone sensitive, not expressing prostate antigen; forms adenocarcinoma grade II in nude mice) are cultured in ATCC-formulated Eagle's Minimum Essential Medium (EMEM, Catalog No. 30-2003). H446 cells (ATCC® HTB-171™, a human small cell carcinoma SC lung cancer (SCLC) cell line derived from a metastatic site) are cultured in RPMI-1640 with 10% FBS. H358 cells (ATCC® CRL-5807™, a human non-small cell lung cancer (NSCLC) cell line that expresses protein and RNA of SP-A, the major lung surfactant associated protein, and produces tumors in athymic nude mice) are cultured in RPMI-1640 Medium with 10% FBS. BxPC3 cells (ATCC® CRL-1687™, an adenocarcinoma-derived pancreatic cancer cell line that expresses pancreas cancer specific antigen and carcinoembryonic antigen and forms tumors in nude mice) are cultured in RPMI-1640 with 10% FBS.
Resistant prostate cancer cell lines MDVR and AbiR: MDVR cells are Enzalutamide-resistant cells, AbiR are Abiraterone acetate resistant cells, formed from parental C4-2B prostate cancer cells as follows. A cell assay is performed exposing cells cultured as described above to various drugs indicated below for 72 hours. Parental C4-2B cells are C4-2B non-resistant cells not previously exposed to cancer drugs. Drug-resistant C4-2B cells are created by prolonged exposure to the relevant drug, i.e. Enzalutamide for MDVR, and Abiraterone acetate for AbiR cells, at initially sub-lethal and gradually increasing concentrations until resistance is achieved.
Example 1: A cell assay is performed exposing cells cultured as described above to various drugs indicated below for 24 hours unless otherwise indicated. Each of the cell lines is treated either with a THAD (e.g. DZ-DHA-ether, MI-148-bis-DHA), or for comparison, with the DHA mono-ester “DZ-DHA”; alternatively/additionally, DZ1 and/or unconjugated DHA may serve as comparants. For each cell line, the IC50 is determined for each drug in concentrations from 0 to 100 μM. […] In the controls (not shown in the figures), the cells are exposed to DMSO (vehicle) for a final concentration that equals the highest concentration of the drug tested, to a maximum concentration less than 0.1% v/v. 4 hours before culture end/SDS addition, 10 μL MTT (3-(4,5-Dimethyl-2-thiazolyl)-2,5-diphenyl-2H-tetrazolium bromide, Sigma-Aldrich) is added to wells containing the cells. At the end of culture, 100 μl 10% SDS is added and then the plate containing the cells is placed in a 37° C. cell culture incubator for 8 hours. […]

C4-2B cells = experiment: MTT cell viability / IC50 assay, C4-2B; conditions: Homo sapiens, 48 h
Experimental: as §1, §2

H358 cells = experiment: MTT cell viability / IC50 assay, H358; conditions: Homo sapiens, NCI-H358, 48 h
Experimental: as §1, §2

| Compound | IC50 (22Rv1 cells) [µM] | IC50 ([1]; ENZ-resistant C4-2B cells (MDVR), unit inferred, read-out: IC50 (FIG. 2B description)) [µM] | IC50 ([1]; MDVR, 24 hours, relative IC50, read-out: IC50) [µM] | IC50 ([1]; MDVR, 48 h, read-out: IC50) [µM] | IC50 (C4-2B cells) [µM] | IC50 (H358 cells) [µM] |
| --- | --- | --- | --- | --- | --- | --- |
| C[C@@H]1CC[C@H]2[C@@H](C)C(OC(=O)CCCCCN3/C(=C/C=C4\CCCC(/C=C/C5=[N+](CCCCS(=O)(=O)[O-])c6ccccc6C5(C)C)=C4Cl)C(C)(C)c4ccccc43)O[C@@H]3OC4(C)CC[C@@H]1[C@]32OO4 (stereo in doubt) [DZ3a] | 0.9 | 3.8 | 3.8 to 5.9 | 5.9 | 5 | 2.6 |
| C[C@H]1[C@@H](O)O[C@@H]2O[C@@]3(C)CC[C@H]4[C@H](C)CC[C@@H]1[C@@]24OO3 [DHA, dihydroartemisinin] | 9.4 |  |  | 390 | 188 | 7.32 |
